Key:
Test in all cases: relative viability (nuclei count vs DMSO), 5 days (fraction); higher = more cells survive
[1] = test system: A-427
In short: (§1)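 For relative viability, nuclei counts in treated wells were divided by those in vehicle wells. Lung cancer cell lines had been pin-tool dosed in 1536-well plates the day after seeding and cultured for 5 days, then fixed and stained in one step (final 0.05% Triton X-100, 1% formaldehyde, 1 ug/ml Hoechst) and imaged at 4×. Doses were one drug alone or a fixed anchor-drug dose plus five library-drug doses (not always all listed) in √10 steps, and values are duplicate-plate medians.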

[2] = test system: ABC-1
In short: as §1

[3] = test system: CAL-12T
In short: as §1

[4] = test system: H3255
In short: as §1

[5] = test system: LC-2-ad
In short: as §1

[6] = test system: LCLC-97TM1
In short: as §1

[7] = test system: LK-2
In short: as §1

[8] = test system: NCI-H1355
In short: as §1

[9] = test system: NCI-H1395
In short: as §1

[10] = test system: NCI-H1651
In short: as §1

[11] = test system: NCI-H1666
In short: as §1

[12] = test system: NCI-H1915
In short: as §1

[13] = test system: NCI-H2085
In short: as §1

[14] = test system: NCI-H2087
In short: as §1

[15] = test system: NCI-H2228
In short: as §1

[16] = test system: NCI-H322M
In short: as §1

[17] = test system: NCI-H358
In short: as §1

[18] = test system: NCI-H661
In short: as §1

[19] = test system: NCI-H838
In short: as §1

[20] = test system: PC-3 [JPC-3]
In short: as §1

[21] = test system: RERF-LC-KJ
In short: as §1

[22] = test system: SK-MES-1
In short: as §1

[23] = test system: UMC-11
In short: as §1

[24] = test system: NCI-H1792
In short: as §1

SMILES: CCCCCCCCCCCC1=C(O)C(=O)C=C(O)C1=O [Embelin] + Cc1cc(Nc2cc(N3CCN(C)CC3)nc(Sc3ccc(NC(=O)C4CC4)cc3)n2)n[nH]1 [Tozasertib] (partner 0.1 µM)
- relative viability ([1]; first compound 0.08 µM): 0.229
- relative viability ([1]; first compound 0.8 µM): 0.196
- relative viability ([1]; first compound 2.53 µM): 0.188
- relative viability ([1]; first compound 8 µM): 0.243
- relative viability ([2]; first compound 0.08 µM): 0.189
- relative viability ([2]; first compound 0.8 µM): 0.166
- relative viability ([2]; first compound 2.53 µM): 0.181
- relative viability ([2]; first compound 8 µM): 0.148
- relative viability ([3]; first compound 0.08 µM): 0.315
- relative viability ([3]; first compound 0.8 µM): 0.406
- relative viability ([3]; first compound 2.53 µM): 0.372
- relative viability ([3]; first compound 8 µM): 0.358
- relative viability ([4]; first compound 0.08 µM): 0.716
- relative viability ([4]; first compound 0.8 µM): 0.595
- relative viability ([4]; first compound 2.53 µM): 0.812
- relative viability ([4]; first compound 8 µM): 0.851
- relative viability ([5]; first compound 0.08 µM): 0.469
- relative viability ([5]; first compound 0.8 µM): 0.421
- relative viability ([5]; first compound 2.53 µM): 0.52
- relative viability ([5]; first compound 8 µM): 0.441
- relative viability ([6]; first compound 0.08 µM): 0.186
- relative viability ([6]; first compound 0.8 µM): 0.239
- relative viability ([6]; first compound 2.53 µM): 0.265
- relative viability ([6]; first compound 8 µM): 0.218
- relative viability ([7]; first compound 0.08 µM): 0.161
- relative viability ([7]; first compound 0.8 µM): 0.172
- relative viability ([7]; first compound 2.53 µM): 0.147
- relative viability ([7]; first compound 8 µM): 0.177
- relative viability ([8]; first compound 0.08 µM): 0.608
- relative viability ([8]; first compound 0.8 µM): 0.704
- relative viability ([8]; first compound 2.53 µM): 0.546
- relative viability ([8]; first compound 8 µM): 0.499
- relative viability ([9]; first compound 0.08 µM): 0.766
- relative viability ([9]; first compound 0.8 µM): 0.725
- relative viability ([9]; first compound 2.53 µM): 0.832
- relative viability ([9]; first compound 8 µM): 0.722
- relative viability ([10]; first compound 0.08 µM): 0.677
- relative viability ([10]; first compound 0.8 µM): 0.657
- relative viability ([10]; first compound 2.53 µM): 0.723
- relative viability ([10]; first compound 8 µM): 0.807
- relative viability ([11]; first compound 0.08 µM): 0.615
- relative viability ([11]; first compound 0.8 µM): 0.68
- relative viability ([11]; first compound 2.53 µM): 0.639
- relative viability ([11]; first compound 8 µM): 0.615
- relative viability ([12]; first compound 0.08 µM): 0.463
- relative viability ([12]; first compound 0.8 µM): 0.448
- relative viability ([12]; first compound 2.53 µM): 0.458
- relative viability ([12]; first compound 8 µM): 0.49
- relative viability ([13]; first compound 0.08 µM): 0.784
- relative viability ([13]; first compound 0.8 µM): 0.939
- relative viability ([13]; first compound 2.53 µM): 0.884
- relative viability ([13]; first compound 8 µM): 0.859
- relative viability ([14]; first compound 0.08 µM): 0.28
- relative viability ([14]; first compound 0.8 µM): 0.308
- relative viability ([14]; first compound 2.53 µM): 0.222
- relative viability ([14]; first compound 8 µM): 0.217
- relative viability ([15]; first compound 0.08 µM): 0.269
- relative viability ([15]; first compound 0.8 µM): 0.247
- relative viability ([15]; first compound 2.53 µM): 0.309
- relative viability ([15]; first compound 8 µM): 0.238
- relative viability ([16]; first compound 0.08 µM): 0.526
- relative viability ([16]; first compound 0.8 µM): 0.52
- relative viability ([16]; first compound 2.53 µM): 0.521
- relative viability ([16]; first compound 8 µM): 0.503
- relative viability ([17]; first compound 0.08 µM): 0.116
- relative viability ([17]; first compound 0.8 µM): 0.0994
- relative viability ([17]; first compound 2.53 µM): 0.108
- relative viability ([17]; first compound 8 µM): 0.106
- relative viability ([18]; first compound 0.08 µM): 0.366
- relative viability ([18]; first compound 0.8 µM): 0.34
- relative viability ([18]; first compound 2.53 µM): 0.318
- relative viability ([18]; first compound 8 µM): 0.337
- relative viability ([19]; first compound 0.08 µM): 0.298
- relative viability ([19]; first compound 0.8 µM): 0.272
- relative viability ([19]; first compound 2.53 µM): 0.282
- relative viability ([19]; first compound 8 µM): 0.295
- relative viability ([20]; first compound 0.08 µM): 0.843
- relative viability ([20]; first compound 0.8 µM): 0.944
- relative viability ([20]; first compound 2.53 µM): 0.927
- relative viability ([20]; first compound 8 µM): 0.991
- relative viability ([21]; first compound 0.08 µM): 0.567
- relative viability ([21]; first compound 0.8 µM): 0.532
- relative viability ([21]; first compound 2.53 µM): 0.564
- relative viability ([21]; first compound 8 µM): 0.368
- relative viability ([22]; first compound 0.08 µM): 0.959
- relative viability ([22]; first compound 0.8 µM): 0.989
- relative viability ([22]; first compound 2.53 µM): 0.998
- relative viability ([22]; first compound 8 µM): 0.621
- relative viability ([23]; first compound 0.08 µM): 0.211
- relative viability ([23]; first compound 0.8 µM): 0.199
- relative viability ([23]; first compound 2.53 µM): 0.184
- relative viability ([23]; first compound 8 µM): 0.192

SMILES: CCCCCCCCCCCC1=C(O)C(=O)C=C(O)C1=O [Embelin] + CC(=O)Nc1cccc(-n2c(=O)n(C3CC3)c(=O)c3c(Nc4ccc(I)cc4F)n(C)c(=O)c(C)c32)c1 [Trametinib] (partner 0.02 µM)
- relative viability ([1]; first compound 0.08 µM): 0.732
- relative viability ([1]; first compound 0.8 µM): 0.785
- relative viability ([1]; first compound 2.53 µM): 0.7
- relative viability ([1]; first compound 8 µM): 0.624
- relative viability ([3]; first compound 0.08 µM): 0.376
- relative viability ([3]; first compound 0.8 µM): 0.386
- relative viability ([3]; first compound 2.53 µM): 0.283
- relative viability ([3]; first compound 8 µM): 0.295
- relative viability ([4]; first compound 0.08 µM): 0.601
- relative viability ([4]; first compound 0.8 µM): 0.764
- relative viability ([4]; first compound 2.53 µM): 0.717
- relative viability ([4]; first compound 8 µM): 0.647
- relative viability ([5]; first compound 0.08 µM): 0.891
- relative viability ([5]; first compound 0.8 µM): 0.98
- relative viability ([5]; first compound 2.53 µM): 0.966
- relative viability ([5]; first compound 8 µM): 1.02
- relative viability ([6]; first compound 0.08 µM): 0.201
- relative viability ([6]; first compound 0.8 µM): 0.18
- relative viability ([6]; first compound 2.53 µM): 0.232
- relative viability ([6]; first compound 8 µM): 0.184
- relative viability ([7]; first compound 0.08 µM): 0.793
- relative viability ([7]; first compound 0.8 µM): 1.02
- relative viability ([7]; first compound 2.53 µM): 0.945
- relative viability ([7]; first compound 8 µM): 0.954
- relative viability ([8]; first compound 0.08 µM): 0.409
- relative viability ([8]; first compound 0.8 µM): 0.443
- relative viability ([8]; first compound 2.53 µM): 0.392
- relative viability ([8]; first compound 8 µM): 0.418
- relative viability ([9]; first compound 0.08 µM): 0.996
- relative viability ([9]; first compound 0.8 µM): 1.14
- relative viability ([9]; first compound 2.53 µM): 1.14
- relative viability ([9]; first compound 8 µM): 1.14
- relative viability ([10]; first compound 0.08 µM): 0.845
- relative viability ([10]; first compound 0.8 µM): 0.905
- relative viability ([10]; first compound 2.53 µM): 0.824
- relative viability ([10]; first compound 8 µM): 0.83
- relative viability ([11]; first compound 0.08 µM): 0.813
- relative viability ([11]; first compound 0.8 µM): 0.824
- relative viability ([11]; first compound 2.53 µM): 0.838
- relative viability ([11]; first compound 8 µM): 0.91
- relative viability ([24]; first compound 0.08 µM): 0.452
- relative viability ([24]; first compound 0.8 µM): 0.539
- relative viability ([24]; first compound 2.53 µM): 0.532
- relative viability ([24]; first compound 8 µM): 0.459
- relative viability ([12]; first compound 0.08 µM): 0.319
- relative viability ([12]; first compound 0.8 µM): 0.33
- relative viability ([12]; first compound 2.53 µM): 0.263
- relative viability ([12]; first compound 8 µM): 0.295
- relative viability ([13]; first compound 0.08 µM): 0.663
- relative viability ([13]; first compound 0.8 µM): 0.579
- relative viability ([13]; first compound 2.53 µM): 0.532
- relative viability ([13]; first compound 8 µM): 0.448
- relative viability ([14]; first compound 0.08 µM): 0.147
- relative viability ([14]; first compound 0.8 µM): 0.225
- relative viability ([14]; first compound 2.53 µM): 0.233
- relative viability ([14]; first compound 8 µM): 0.182
- relative viability ([15]; first compound 0.08 µM): 0.491
- relative viability ([15]; first compound 0.8 µM): 0.523
- relative viability ([15]; first compound 2.53 µM): 0.609
- relative viability ([15]; first compound 8 µM): 0.455
- relative viability ([16]; first compound 0.08 µM): 0.53
- relative viability ([16]; first compound 0.8 µM): 0.543
- relative viability ([16]; first compound 2.53 µM): 0.516
- relative viability ([16]; first compound 8 µM): 0.49
- relative viability ([17]; first compound 0.08 µM): 0.137
- relative viability ([17]; first compound 0.8 µM): 0.154
- relative viability ([17]; first compound 2.53 µM): 0.127
- relative viability ([17]; first compound 8 µM): 0.14
- relative viability ([18]; first compound 0.08 µM): 0.604
- relative viability ([18]; first compound 0.8 µM): 0.729
- relative viability ([18]; first compound 2.53 µM): 0.657
- relative viability ([18]; first compound 8 µM): 0.521
- relative viability ([19]; first compound 0.08 µM): 0.523
- relative viability ([19]; first compound 0.8 µM): 0.705
- relative viability ([19]; first compound 2.53 µM): 0.571
- relative viability ([19]; first compound 8 µM): 0.511
- relative viability ([20]; first compound 0.08 µM): 0.684
- relative viability ([20]; first compound 0.8 µM): 0.75
- relative viability ([20]; first compound 2.53 µM): 0.788
- relative viability ([20]; first compound 8 µM): 0.614
- relative viability ([21]; first compound 0.08 µM): 0.871
- relative viability ([21]; first compound 0.8 µM): 0.977
- relative viability ([21]; first compound 2.53 µM): 0.896
- relative viability ([21]; first compound 8 µM): 0.853
- relative viability ([22]; first compound 0.08 µM): 0.599
- relative viability ([22]; first compound 0.8 µM): 0.588
- relative viability ([22]; first compound 2.53 µM): 0.591
- relative viability ([22]; first compound 8 µM): 0.518
- relative viability ([23]; first compound 0.08 µM): 0.698
- relative viability ([23]; first compound 0.8 µM): 0.869
- relative viability ([23]; first compound 2.53 µM): 0.758
- relative viability ([23]; first compound 8 µM): 0.593

Source: the supplement of paper PMC10307832
